Results on one molecule are retold here after patent publication US20150182586A1, “DAIRY FARM TEAT DIP COMPOSITIONS AND METHODS” (Advanced BioCatalytics Corporation, priority 2013, published 2015).

The assay has as its system mastitis. The assay is described as follows: Teat dip field test, Dairy 3 (spray, raw milk dairy, 6 week test period). Particulars: Dairy 3, pre and post milking; chlorine dioxide on cows without previous mastitis (Pens 0, 1, 3, 5), Example 1 on cows with previous mastitis (Pen 7). It counts as in vivo. The text has this: Dairy 3 produces raw milk and uses a spray method for applying teat dips. A key factor to note is that Example 1 was used on cows that previously had mastitis. The results of Table 5 compare using chlorine dioxide on cows that had not had mastitis, to using Example 1 on cows that were more susceptible due to previous bouts with mastitis. Once a cow developed mastitis in Dairy 3, it is not used in the production of raw milk. […] Pen No's. 0, 1, 3 and 5 used chlorine dioxide for both pre and post milking. Pen No. 7 used Example 1 for the 6 week test period. In all pens, the cows were retained in pens with saw dust in between milking cycles to reduce the chance of spreading infectious disease.
The number of cows that were […] using the composition of Example 1, for both pre and post milking, during the 6 week test period was 5.3% as shown in Table 5. Table 6 defines the number of cows in each respective pen of Table 5.

In the case of `[O][Cl+][O-]` [chlorine dioxide], the “cows that developed mastitis during the 6 week test period” value is on record as 5.7%.
